Read-outs that look alike come from different tables or passages of the source.
Columns and labels:
[1] = tested on: symptomatic subjects with Huntington's disease; format: in vivo, human
Procedure: A two-phase open-label study was conducted to better determine an optimal dose of creatine symptomatic subjects with Huntington's disease. A dose-escalation study (10-40 grams per day) was conducted to determine the maximally tolerated dose (MTD) followed by a de-escalation phase to assess whether brain and serum levels of creatine might be maximal at doses lower than the MTD. Ten subjects were enrolled and followed prospectively for two weeks at each done level increasing in 5-gram increments during dose escalation that lasted 13 weeks. Assessments at each visit included UHDRS, EKG, vital signs, clinical safety and research labs. MRI spectroscopy was conducted prior to baseline at peak done (40 grams) and one month after de-escalation to either 30 or 15 grams daily. To determine an optimal dose, pharmacokinetic as well as clinical data were considered. Once the maximal dose was reached, subjects were assigned one of two lower doses previously taking (15 grams a day (n=5) or 30 grams a day (n=5)). Serum creatine was assessed at baseline, at the end of each 2-week dose escalation step and at the end of the de-escalation phase to assess the correspondence between serum and brain levels of creatine at steady state.
Subjects at the end of this study were given the option to continue a long-term study to evaluate the long-term safety and tolerability of high dosage of creatine. Subjects have been followed for nine months on creatine. […] Adverse events have been infrequent and mild to moderate in grade and 30 grams daily creatine has been well-tolerated for 9 months. Laboratory abnormalities have been mild. […] Thus long term administration of 30 grams daily of creatine appears to be safe and well-tolerated.

cortical thinning in HD = experiment: Example 3: morphometric neuroimaging, rate of cortical thinning; format: in vivo, human; settings: high dose creatine
Procedure: High dose creatine slows cortical thinning. Morphometric neuroimaging was performed in all subjects. Longitudinal data from up to three years prior to initiating creatine was available on 6 or the 10 subjects. The rate of thinning of cortical regions in HD was modeled based on the longitudinal data and a change in rate was determined for each region of the group while on creatine. […] Creatine reduced the rate of thinning in almost every region, and the rate of change was statistically significant for several regions and amounted to about a 30% slowing. There was no effect on the rate of caudate volume loss (p=0.67), rate of putamen volume loss, or on total brain volume. The lack of an effect on striatal volumes likely reflects the fact that in these individuals, caudate and putamen volumes were already reduced by more than half and the lack of change in whole brain by the fact that small proportion of the brain is represented by the detected change.

[2] = De-escalation Baseline, 15 g/day, N 5
[3] = De-escalation Baseline, 30 g/day, N 5
[4] = Week 24 (Visit 4), 30 g/day, N 10

CN(CC(=O)O)C(=N)N [Creatine, creatine monohydrate]
Independence Score [1, 2]: 75.0 (8.7)
Stroop Color Naming [1, 2]: 52.8 (22.9)
Stroop Interference [1, 2]: 23.8 (13.1)
Stroop Word Reading [1, 2]: 56.0 (24.3)
Symbol Digit Modalities Test [1, 2]: 29.0 (10.6)
Total Chorea Score [1, 2]: 5.5 (1.7)
Total Functional Assessment [1, 2]: 10.6 (9.8)
Total Functional Capacity [1, 2]: 8.8 (1.8)
Verbal Fluency Test [1, 2]: 15.8 (16.0)
Independence Score [1, 3]: 82.5 (14.4)
Stroop Color Naming [1, 3]: 57.8 (24.2)
Stroop Interference [1, 3]: 40.0 (19.6)
Stroop Word Reading [1, 3]: 90.0 (24.2)
Symbol Digit Modalities Test [1, 3]: 34.0 (20.5)
Total Chorea Score [1, 3]: 7.8 (4.3)
Total Functional Assessment [1, 3]: 15.8 (10.2)
Total Functional Capacity [1, 3]: 9.8 (3.4)
Verbal Fluency Test [1, 3]: 28.3 (15.8)
Independence Score [1, 4]: 82.5 (8.9)
Stroop Color Naming [1, 4]: 51.7 (21.37)
Stroop Interference [1, 4]: 31.3 (15.23)
Stroop Word Reading [1, 4]: 62.7 (24.11)
Symbol Digit Modalities Test [1, 4]: 30.56 (12.63)
Total Chorea Score [1, 4]: 7.0 (4.1)
Total Functional Assessment [1, 4]: 19.6 (4.1)
Total Functional Capacity [1, 4]: 8.7 (2.2)
Verbal Fluency Test [1, 4]: 26.6 (17.67)
Serious adverse effects ([1]; human, in vivo): no serious adverse effects
Tolerability ([1]; human, in vivo): well-tolerated
Clinical changes (UHDRS subscores) ([1]; long-term follow-up, up to 9 months): no significant clinical changes
Effect on rate of caudate volume loss, rate of putamen volume loss, total brain volume (cortical thinning in HD; caudate p=0.67): no effect
Slowing of the rate of cortical thinning (cortical thinning in HD; several cortical regions statistically significant, longitudinal data on 6 of 10 subjects): ~30%
